Measured values as given in publication PMC8795738, “The Tarantula Venom Peptide Eo1a Binds to the Domain II S3-S4 Extracellular Loop of Voltage-Gated Sodium Channel NaV1.8 to Enhance Activation” (Frontiers in Pharmacology, 2022).
Where a SMILES comes first, the peptide text is derived from it. Bridges are numbered along the chain shown (N, C = ends).

Experiments:
DRG neurons = assay: Calcium imaging of dorsal root ganglion (DRG) neurons; format: cell-based, mouse
Text: (§1) Adult male C57BL/6J mice aged 4–8 weeks were sourced from the Animal Resource Centre (Canning Vale, Western Australia). Adult male NaV1.8 knockouts ([Nassar et al., 2004]) (aged 8–11 weeks) and wild-type littermates were housed and tested at University College London. Animals were housed in groups of three or four per cage under 12-h light-dark cycles and were provided with standard rodent chow and water ad libitum. Ethical approval for experiments involving animals was obtained from The University of Queensland animal ethics committee (TRI/IMB/093/17, IMB/PACE/421/18) and the United Kingdom Home Office (project licence PPL 70/7382). All experiments were conducted in accordance with the International Association for the Study of Pain Guidelines for the Use of Animals in Research and the Australian Code of Practice for the Care and Use of Animals for Scientific Purposes, 8th edition (2013).
For Ca^2+ imaging experiments, DRG neurons were isolated from 4 week old male C57BL/6J mice as previously described ([Robinson et al., 2018]). DRG neurons were dissociated and plated in 96-well poly-D-lysine-coated culture plates grown in Dulbecco’s modified Eagle’s medium supplemented with 10% fetal bovine serum (FBS) and penicillin/streptomycin and cultured for 24 h at 37°C with 5% CO2. Dissociated DRG neurons were loaded with Fluo-4 AM calcium indicator (5 μM) for 1 h, then washed with Hanks’ balanced salt solution (HBSS) containing 20 mM HEPES. Fluorescence was measured using a Nikon Ti-E Deconvolution inverted microscope, in conjunction with a Lumencor Spectra LED light source (excitation, 485 nm; emission, 521 nm). Images were acquired at 1 frame per s using a 20× objective. […] Only excitable cells responding to KCl were included for analysis. Cells were classified as responders if they had at least a 1.5-fold increase in fluorescence over baseline.

NaV1.8 KO mice = assay: Spontaneous pain after intraplantar injection, NaV1.8 knockout mice; format: in vivo, mouse; conditions: Eo1a intraplantar, significantly reduced vs WT, *p < 0.05 unpaired t-test, mean ± SEM, n = 3–4 mice
Text: as §1
Eo1a (1 μM or 10 μM) was diluted in saline/0.1% BSA and administered by intraplantar injection to the left hind paw of mice in a volume of 40 μl under isoflurane (3%) anaesthesia, and spontaneous pain behaviours (licks, bites, shakes, and lifts of the hind paw) were counted by a blinded investigator for up to 40 min after the injection.

[1] = system: NaV1.7 with DIV S1-S2 loop of NaV1.8; assay: Voltage-dependence of activation, NaV1.7/NaV1.8 chimera DIV S1-S2; format: cell-based, human; conditions: Eo1a 10 μM; NaV1.7 with NaV1.8 DIV S1-S2; HEK293 β1/β2, transient; mean ± SEM, n = 3–6 cells
Procedure: Human Embryonic Kidney (HEK) 293 cells stably expressing human NaV1.1 to NaV1.7/β1 (SB Drug Discovery, Glasgow, United Kingdom), Chinese Hamster Ovary (CHO) cells stably expressing human NaV1.8/β3 in a tetracycline-inducible system (ChanTest, Cleveland, OH, United States), and HEK293 cells stably expressing rat transient receptor potential vanilloid 1 (TRPV1) were cultured as previously described ([Yin et al., 2020]). Human KV2.1 and NaV1.7 mutants were transiently transfected into HEK293 cells stably expressing β1/β2 using Lipofectamine 2000 (Thermo Fisher Scientific, Scoresby, VIC, Australia) and used for patch-clamp experiments 48 h after transfection. Cells were grown in an incubator at 37°C with 5% CO2 and passaged every 3–4 d (at 70–80% confluency) using TrypLE Express (Thermo Fisher Scientific).
Wild-type (WT) hNaV1.7 cDNA (NM_002,977, a gift from Dr James Cox, University College London) was subjected to in vitro site-directed mutagenesis using the QuikChange™ XL mutagenesis kit (Agilent Technologies) following the manufacturer’s instructions. NaV1.7 mutants were generated by substituting the domain II (DII) S1-S2 loop, the DII S3-S4 loop, the domain IV (DIV) S1-S2 loop and the DIV S3-S4 loop in NaV1.7 with the corresponding regions of NaV1.8. The mutations were verified by sequencing at the Brisbane node of the Australian Genome Research Facility. […]

CC[C@H](C)[C@@H]1NC(=O)[C@H](CCCNC(=N)N)NC(=O)[C@@H]2CSSC[C@@H]3NC(=O)CNC(=O)CNC(=O)[C@H](CC(C)C)NC(=O)[C@H](Cc4ccccc4)NC(=O)[C@H](Cc4c[nH]c5ccccc45)NC(=O)[C@H](CCCNC(=N)N)NC(=O)[C@@H](NC(=O)[C@@H](N)CC(=O)O)CSSC[C@H](NC(=O)[C@H](CSSC[C@@H](C(=O)N[C@@H](C)C(=O)N[C@@H](Cc4c[nH]c5ccccc45)C(=O)N[C@@H](CC(=O)O)C(=O)NCC(=O)N[C@H](C(=O)N[C@@H](Cc4ccccc4)C(N)=O)[C@@H](C)O)NC(=O)[C@H](Cc4ccc(O)cc4)NC(=O)[C@H](CCCCN)NC(=O)[C@H]([C@@H](C)CC)NC(=O)[C@H](Cc4ccc(O)cc4)NC(=O)CNC(=O)[C@H](CC(=O)O)NC1=O)NC(=O)[C@H](CC(=O)O)NC(=O)[C@H](CO)NC(=O)[C@H](CC(=O)O)NC(=O)[C@H](CCCCN)NC(=O)[C@H](CO)NC3=O)C(=O)N[C@@H](CCCCN)C(=O)N[C@@H](Cc1c[nH]cn1)C(=O)N[C@@H](CC(C)C)C(=O)N[C@@H](C)C(=O)N2 [Eo1a] (H-DCRWFLGGCSKDSDCCKHLACRIDGYIKYCAWDGTF-NH2; disulfide 2-16, 9-21, 15-30 (inferred); N-terminus assumed)
neurons activated in the presence of TTX (DRG neurons; Eo1a 10 μM + TTX 1 μM, dissociated DRG neurons of C57BL/6J mice, Fluo-4, mean ± SEM of 2–3 wells): 30 ± 2% | neurons with Ca2+ influx (activated) (DRG neurons; Eo1a 10 μM, dissociated DRG neurons of C57BL/6J mice, Fluo-4, responder = at least 1.5-fold fluorescence increase, without TTX, mean ± SEM of 2–3 wells): 44 ± 3% | size of activated neurons (DRG neurons; Eo1a 10 μM, n = 473 alone, n = 317 with TTX, distribution did not change with TTX): smaller size | spontaneous pain (flinches) (NaV1.8 KO mice): 216 ± 26 Flinches/15 min | ΔV1/2 activation [1]: −4.8 ± 0.6 mV
